The values below come from article PMC9048407 (Molecular microbiology, 2021).

In general, stoichiometry N refers to a count of units in the complex or per binding partner.

In one experiment the target is T1, BplA (Ca 0589) (Clostridium acetobutylicum, UniProt Q97LH2).
T1 sequence (Q97LH2 1-270): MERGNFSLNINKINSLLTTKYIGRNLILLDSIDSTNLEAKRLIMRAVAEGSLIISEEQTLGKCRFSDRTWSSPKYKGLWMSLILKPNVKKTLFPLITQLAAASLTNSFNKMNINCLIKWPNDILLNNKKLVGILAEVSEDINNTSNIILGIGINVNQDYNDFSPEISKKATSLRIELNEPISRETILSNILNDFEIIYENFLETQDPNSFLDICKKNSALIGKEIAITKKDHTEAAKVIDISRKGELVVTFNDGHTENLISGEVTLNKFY
The experiment in a line: TLC of […]Bio-5′-AMP. Type of experiment: biochemical. Particulars: 25 uM biotin, 5 uM ATP, 5.5 mM MgCl2, pH 8.0, room temperature; acceptor B. subtilis AccB-86.

Experiment [1] deals with BirA′ (protein encoded by Clostridium acetobutylicum gene Ca 0212), purified (Clostridium acetobutylicum (strain ATCC 824)). As to the kind of experiment: SEC. In general terms: Size exclusion chromatography separates by hydrodynamic size, large species first.

On to `O=C(O)CCCC[C@@H]1SC[C@@H]2NC(=O)N[C@@H]21` [biotin], for which the “TLC of [32P]Bio-5′-AMP; AccB-86 native gel shift; MS/MS of product” value at BplA (Ca 0589) is on record as “In reactions with BplA, formation of the Bio-5′-AMP intermediate was detected upon biotin addition”.
For the molecule “BirA′ (protein encoded by Clostridium acetobutylicum gene Ca 0212), purified (natural protein)”, the stoichiometry N in experiment [1] worked out at 2.
